Data published in US20240132431A1, “METHOD FOR ALKYLATING ACIDIC FUNCTIONAL GROUP” (Chugai Seiyaku Kabushiki Kaisha, priority 2021, published 2024).
One block for each compound: values may come before it.

Target: T1, Bcl-2 protein (Recombinant Human Bcl-2 Protein) (Homo sapiens, UniProt P10415)
T1 construct: purchased Novus NBP2-34889
Test: Binding evaluation of mixture library compounds to Bcl-2 using AS-MS (affinity selection mass spectrometry)
Settings: for ASMS ratio (%) n = 1: replicate n = 1; for ASMS ratio (%) n = 1 / ASMS ratio (%) n = 2: ASMS Ratio(%)=(A−C)/B×100; for ASMS ratio (%) n = 2: replicate n = 2
Procedure, shortened: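 Affinity selection MS: Bcl-2 20 μM + 1200-cpd mixture, […]/cpd, Tris pH 7.4 buffer w/ Tween-20, DTT; 1 h 23° C dark; P-2 spin SEC; MeCN/MeOH extraction; RP LC/MS. ASMS Ratio(%) = (A−C)/B×100.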

[1] = AS-MS, mixture of 1200 compounds, Bcl-2
[2] = AS-MS on the mixture of 1200 library compounds

T1 sequence (P10415 whole entry): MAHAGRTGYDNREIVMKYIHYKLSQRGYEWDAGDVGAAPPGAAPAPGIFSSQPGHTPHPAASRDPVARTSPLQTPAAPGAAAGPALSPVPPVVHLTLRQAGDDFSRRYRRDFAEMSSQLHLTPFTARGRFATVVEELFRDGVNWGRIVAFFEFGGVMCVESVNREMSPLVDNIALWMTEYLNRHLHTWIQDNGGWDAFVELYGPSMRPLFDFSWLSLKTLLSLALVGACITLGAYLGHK

Compound: CCOc1cccc(-c2cc(CN3CCN(c4ccc(C(=O)NS(=O)(=O)c5ccc(NCCSc6ccccc6)c([N+](=O)[O-])c5)cc4)CC3)cc(OC(F)(F)F)c2)c1 [B2Q063-01, 4-[4-[[3-(3-Ethoxyphenyl)-5-(trifluoromethoxy)phenyl]methyl]piperazin-1-yl]-N-[3-nitro-4-(2-phenylsulfanylethylamino)phenyl]sulfonylbenzamide]
- ASMS ratio (%) n = 1 (AS-MS, mixture library, Bcl-2): 13.3%
- ASMS ratio (%) n = 2 (AS-MS, mixture library, Bcl-2): −25.5%

Compound: CCOc1cccc(-c2cc(CN3CCN(c4ccc(C(=O)NS(=O)(=O)CCC(F)(F)F)nn4)CC3)cc(C(F)(F)F)c2)c1 [B2N087-01]
- ASMS ratio (%) (n = 1): 0.0%
- ASMS ratio (%) (n = 2): 0.0%

Compound: CCOc1cccc(-c2ccc(CN3CCN(c4ccc(C(=O)NS(=O)(=O)c5ccc(NCCSc6ccccc6)c(C(F)(F)F)c5)nn4)CC3)c(CC)c2)c1 [B2R075-01, 6-[4-[[4-(3-Ethoxyphenyl)-2-ethylphenyl]methyl]piperazin-1-yl]-N-[4-(2-phenylsulfanylethylamino)-3-(trifluoromethyl)phenyl]sulfonylpyridazine-3-carboxamide]
- ASMS ratio (%) (n = 1): 8.6%
- ASMS ratio (%) (n = 2): 0.0%

Compound: CCOc1cncc(-c2ccc(CN3CCN(c4ccc(C(=O)N(C)CC56CC7CC(CC(C7)C5)C6)nn4)CC3)c(CC)c2)c1 [B3A076-01, N-(1-Adamantylmethyl)-6-[4-[[4-(5-ethoxypyridin-3-yl)-2-ethylphenyl]methyl]piperazin-1-yl]-N-methylpyridazine-3-carboxamide]
- ASMS ratio (%) n = 1 [2]: 6.5%
- ASMS ratio (%) n = 2 [2]: −0.9%

Compound: CCOc1cccc(-c2ccc(CN3CCN(c4ccc(C(=O)NS(=O)(=O)CC56CC7CC(CC(C7)C5)C6)cc4)CC3)c(CC)c2)c1 [B2A049-01, N-(1-Adamantylmethylsulfonyl)-4-[4-[[4-(3-ethoxyphenyl)-2-ethylphenyl]methyl]piperazin-1-yl]benzamide]
- ASMS ratio (%) n = 1 (AS-MS, mixture library, Bcl-2): −3.0%
- ASMS ratio (%) n = 2 (AS-MS, mixture library, Bcl-2): 6.2%

Compound: CCOc1cccc(-c2ccc(C(=O)N3CCN(c4ccc(C(=O)N(C)CC56CC7CC(CC(C7)C5)C6)nn4)CC3)c3ccccc23)c1 [B3A013-01, N-(1-Adamantylmethyl)-6-[4-[4-(3-ethoxyphenyl)naphthalene-1-carbonyl]piperazin-1-yl]-N-methylpyridazine-3-carboxamide]
- ASMS ratio (%) n = 1 [2]: 10.2%
- ASMS ratio (%) n = 2 [2]: −20.0%

Compound: CCOc1cncc(-c2ccc(CN3CCN(c4ccc(C(=O)N(CC)CC)cc4)CC3)cc2F)c1 [B4J052-01]
- ASMS ratio (%) n = 1 [2]: 0.5%
- ASMS ratio (%) n = 2 [2]: −1.5%

Compound: 6-[4-[[4-(3-Ethoxyphenyl)-2-methoxyphenyl]methyl]piperazin-1-yl]-N-propylpyridazine-3-carboxamide [B1M094-01]
- ASMS ratio (%) n = 1 [2]: −1.5%
- ASMS ratio (%) n = 2 [2]: −2.1%

Compound: CCOc1cncc(-c2cc(CN3CCN(c4ccc(C(=O)NS(C)(=O)=O)nn4)CC3)cc(OCC)c2)c1 [B2I082-01, 6-[4-[[3-Ethoxy-5-(5-ethoxypyridin-3-yl)phenyl]methyl]piperazin-1-yl]-N-methylsulfonylpyridazine-3-carboxamide]
- ASMS ratio (%) (n = 1): 0.0%
- ASMS ratio (%) (n = 2): 1.9%

Compound: CCOc1cncc(-c2cc(OC)c(CN3CCN(c4ccc(C(=O)NCC(F)(F)F)cc4)CC3)c(OC)c2)c1 [B1K060-01]
- ASMS ratio (%) n = 1 [1]: 0.0%
- ASMS ratio (%) n = 2 [1]: 0.0%

Compound: CCOc1cccc(-c2cc(CN3CCN(c4ccc(C(=O)NS(C)(=O)=O)cc4)CC3)cc(OCC)c2)c1 [B2I055-01, 4-[4-[[3-Ethoxy-5-(3-ethoxyphenyl)phenyl]methyl]piperazin-1-yl]-N-methylsulfonylbenzamide]
- ASMS ratio (%) (n = 1): 0.0%
- ASMS ratio (%) (n = 2): 0.0%

Compound: CCOc1cccc(-c2ccc(C(=O)N3CCN(c4ccc(C(=O)NCC56CC7CC(CC(C7)C5)C6)nn4)CC3)c3ccccc23)c1 [B1A013-01, N-(1-Adamantylmethyl)-6-[4-[4-(3-ethoxyphenyl)naphthalene-1-carbonyl]piperazin-1-yl]pyridazine-3-carboxamide]
- ASMS ratio (%) n = 1 [1]: −1.7%
- ASMS ratio (%) n = 2 [1]: 2.4%

Compound: CCOc1cccc(-c2ccc(CN3CCN(c4ccc(C(=O)Nc5ccc(OC)cc5)cc4)CC3)cc2C)c1 [B1O047-01, 4-[4-[[4-(3-Ethoxyphenyl)-3-methylphenyl]methyl]piperazin-1-yl]-N-(4-methoxyphenyl)benzamide]
- ASMS ratio (%) n = 1 [2]: 4.1%
- ASMS ratio (%) n = 2 [2]: 1.5%

The remaining lines, values ahead:

- ASMS ratio (%) n = 1 (AS-MS, mixture library, Bcl-2): −4.0%
- ASMS ratio (%) n = 2 (AS-MS, mixture library, Bcl-2): −0.2%
Compound: CCOc1cncc(-c2ccccc2CCC(=O)N2CCN(c3ccc(C(=O)NS(C)(=O)=O)nn3)CC2)c1 [B2I012-01, 6-[4-[3-[2-(5-Ethoxypyridin-3-yl)phenyl]propanoyl]piperazin-1-yl]-N-methylsulfonylpyridazine-3-carboxamide]

- ASMS ratio (%) n = 1 [1]: 27.6%
- ASMS ratio (%) n = 2 [1]: 20.2%
Compound: CCCNC(=O)c1ccc(N2CCN(Cc3ccccc3C#Cc3cccc(OCC)c3)CC2)cc1 [B1M052-01]

- ASMS ratio (%) (n = 1): 0.0%
- ASMS ratio (%) (n = 2): 0.0%
Compound: CCOc1cncc(-c2cc(C(=O)N3CCN(c4ccc(C(=O)NS(=O)(=O)CCC(F)(F)F)cc4)CC3)cc(C(F)(F)F)c2)c1 [B2N040-01, 4-[4-[3-(5-Ethoxypyridin-3-yl)-5-(trifluoromethyl)benzoyl]piperazin-1-yl]-N-(3,3,3-trifluoropropylsulfonyl)benzamide]

- ASMS ratio (%) n = 1 (AS-MS, mixture library, Bcl-2): 3.1%
- ASMS ratio (%) n = 2 (AS-MS, mixture library, Bcl-2): 7.2%
Compound: CCOc1cccc(C#Cc2cncc(C(=O)N3CCN(c4ccc(C(=O)NS(=O)(=O)CC56CC7CC(CC(C7)C5)C6)nn4)CC3)c2)c1 [B2A009-01, N-(1-Adamantylmethylsulfonyl)-6-[4-[5-[2-(3-ethoxyphenyl)ethynyl]pyridine-3-carbonyl]piperazin-1-yl]pyridazine-3-carboxamide]

- ASMS ratio (%) (n = 1): 0.0%
- ASMS ratio (%) (n = 2): 0.0%
Compound: CCOc1cncc(-c2ccc(C(C)N3CCN(c4ccc(C(=O)NS(=O)(=O)CCC(F)(F)F)cc4)CC3)c(F)c2)c1 (stereo not drawn) [B2N100-01, 4-[4-[1-[4-(5-Ethoxypyridin-3-yl)-2-fluorophenyl]ethyl]piperazin-1-yl]-N-(3,3,3-trifluoropropylsulfonyl)benzamide]

- ASMS ratio (%) n = 1 [1]: −1.0%
- ASMS ratio (%) n = 2 [1]: −11.0%
Compound: CCOc1cccc(-c2cc(CN3CCN(c4ccc(C(=O)NCC56CC7CC(CC(C7)C5)C6)cc4)CC3)cc(OC(F)(F)F)c2)c1 [B1A063-01, N-(1-Adamantylmethyl)-4-[4-[[3-(3-ethoxyphenyl)-5-(trifluoromethoxy)phenyl]methyl]piperazin-1-yl]benzamide]

- ASMS ratio (%) n = 1 (AS-MS, mixture library, Bcl-2): 0.0%
- ASMS ratio (%) n = 2 (AS-MS, mixture library, Bcl-2): 0.0%
Compound: CCOc1cccc(-c2csc(CN3CCN(c4ccc(C(=O)NS(=O)(=O)CC56CC7CC(CC(C7)C5)C6)cc4)CC3)c2)c1 [B2A067-01, N-(1-Adamantylmethylsulfonyl)-4-[4-[[4-(3-ethoxyphenyl)thiophen-2-yl]methyl]piperazin-1-yl]benzamide]

- ASMS ratio (%) n = 1 [1]: 11.2%
- ASMS ratio (%) n = 2 [1]: −13.2%
Compound: CCOc1cccc(-c2ccccc2CCC(=O)N2CCN(c3ccc(C(=O)NCC45CC6CC(CC(C6)C4)C5)nn3)CC2)c1 [B1A011-01, N-(1-Adamantylmethyl)-6-[4-[3-[2-(3-ethoxyphenyl)phenyl]propanoyl]piperazin-1-yl]pyridazine-3-carboxamide]

- ASMS ratio (%) n = 1 [1]: 1.2%
- ASMS ratio (%) n = 2 [1]: −0.3%
Compound: CCOc1cncc(-c2cc(CN3CCN(c4ccc(C(=O)NCC(F)(F)F)cc4)CC3)cc(C(F)(F)F)c2)c1 [B1K062-01, 4-[4-[[3-(5-Ethoxypyridin-3-yl)-5-(trifluoromethyl)phenyl]methyl]piperazin-1-yl]-N-(2,2,2-trifluoroethyl)benzamide]

- ASMS ratio (%) n = 1 (AS-MS, mixture library, Bcl-2): 14.7%
- ASMS ratio (%) n = 2 (AS-MS, mixture library, Bcl-2): 17.2%
Compound: CCOc1cccc(-c2ccc(CN3CCN(c4ccc(C(=O)NS(=O)(=O)c5ccc(NCCSc6ccccc6)c([N+](=O)[O-])c5)nn4)CC3)cc2F)c1 [B2Q077-01, 6-[4-[[4-(3-Ethoxyphenyl)-3-fluorophenyl]methyl]piperazin-1-yl]-N-[3-nitro-4-(2-phenylsulfanylethylamino)phenyl]sulfonylpyridazine-3-carboxamide]

- ASMS ratio (%) n = 1 [2]: 1.7%
- ASMS ratio (%) n = 2 [2]: −1.8%
Compound: CCOc1cncc(-c2ccc(CN3CCN(c4ccc(C(=O)N(C)CC56CC7CC(CC(C7)C5)C6)nn4)CC3)c(OC)c2)c1 [B3A080-01, N-(1-Adamantylmethyl)-6-[4-[[4-(5-ethoxypyridin-3-yl)-2-methoxyphenyl]methyl]piperazin-1-yl]-N-methylpyridazine-3-carboxamide]

- ASMS ratio (%) n = 1 [2]: −0.4%
- ASMS ratio (%) n = 2 [2]: 2.1%
Compound: CCOc1cccc(-c2ccc(C(=O)N3CCN(c4ccc(C(=O)N(CC)CC)nn4)CC3)cc2F)c1 [B4J005-01, 6-[4-[4-(3-Ethoxyphenyl)-3-fluorobenzoyl]piperazin-1-yl]-N,N-diethylpyridazine-3-carboxamide]

- ASMS ratio (%) n = 1 (AS-MS, mixture library, Bcl-2): 23.4%
- ASMS ratio (%) n = 2 (AS-MS, mixture library, Bcl-2): 11.4%
Compound: CCOc1cncc(-c2ccc(CN3CCN(c4ccc(C(=O)NS(=O)(=O)CC56CC7CC(CC(C7)C5)C6)nn4)CC3)c(CC)c2)c1 [B2A076-01, N-(1-Adamantylmethylsulfonyl)-6-[4-[[4-(5-ethoxypyridin-3-yl)-2-ethylphenyl]methyl]piperazin-1-yl]pyridazine-3-carboxamide]

- ASMS ratio (%) n = 1 [2]: 1.4%
- ASMS ratio (%) n = 2 [2]: −3.6%
Compound: CCOc1cncc(-c2csc(CN3CCN(c4ccc(C(=O)N(C)CC56CC7CC(CC(C7)C5)C6)cc4)CC3)c2)c1 [B3A068-01, N-(1-Adamantylmethyl)-4-[4-[[4-(5-ethoxypyridin-3-yl)thiophen-2-yl]methyl]piperazin-1-yl]-N-methylbenzamide]
